The source of these data is patent US20210087206A1, “MACROCYCLIC KINASE INHIBITORS AND THEIR USE” (TURNING POINT THERAPEUTICS, INC., priority 2017, published 2021).

Test in all cases: Cell proliferation assay (CellTiter-Glo)
Holding throughout (format): cell-based

In assay [1] the test system is KM12 (TPM3-TRKA). The settings on record: Homo sapiens, anti-cell proliferation, 72 hours. As to the method:
(§1) Cell Lines and Cell Culture:
(§2) Colorectal cell line KM 12 (harboring endogenous TPM3-TRKA fusion gene) was obtained from NCI. Acute myelogenous cell line KG-1 (harboring endogenous OP2-FGFR1 fusion gene) were purchased from ATCC.
(§3) Cell Proliferation Assays:
(§4) Two thousand cells per well were seeded in 384 well white plate for 24 hrs, and then treated with compounds for 72 hours (37° C., 5% CO2). Cell proliferation was measured using CellTiter-Glo luciferase-based ATP detection assay (Promega) following the manufactures's protocol. IC50 determinations were performed using GraphPad Prism software (GraphPad, Inc., San Diego, Calif.).

For assay [2], the system named is KG-1 cell (OP2-FGFR1). Particulars: Homo sapiens, anti-cell proliferation, 72 hours. As to the method: as §1, §2, §3, §4
In assay [3] the target is T1, BaF3 EML4-ALK (Homo sapiens, UniProt Q9UM73).
T1 construct: The EML4-ALK gene (variant 1) was synthesized at GenScript and cloned into pCDH-CMV-MCS-EF1-Puro plasmid (System Biosciences, Inc); fused on or other part: EML4 N-terminal part (variant 1: exons 1-13, with the coiled-coil that oligomerises the fusion) fused to the intracellular part of ALK, which contains the kinase domain; Q9HC35 (Echinoderm microtubule-associated protein-like 4)
T1 sequence (Q9UM73 whole entry, stated change not applied, the tested form may be a part): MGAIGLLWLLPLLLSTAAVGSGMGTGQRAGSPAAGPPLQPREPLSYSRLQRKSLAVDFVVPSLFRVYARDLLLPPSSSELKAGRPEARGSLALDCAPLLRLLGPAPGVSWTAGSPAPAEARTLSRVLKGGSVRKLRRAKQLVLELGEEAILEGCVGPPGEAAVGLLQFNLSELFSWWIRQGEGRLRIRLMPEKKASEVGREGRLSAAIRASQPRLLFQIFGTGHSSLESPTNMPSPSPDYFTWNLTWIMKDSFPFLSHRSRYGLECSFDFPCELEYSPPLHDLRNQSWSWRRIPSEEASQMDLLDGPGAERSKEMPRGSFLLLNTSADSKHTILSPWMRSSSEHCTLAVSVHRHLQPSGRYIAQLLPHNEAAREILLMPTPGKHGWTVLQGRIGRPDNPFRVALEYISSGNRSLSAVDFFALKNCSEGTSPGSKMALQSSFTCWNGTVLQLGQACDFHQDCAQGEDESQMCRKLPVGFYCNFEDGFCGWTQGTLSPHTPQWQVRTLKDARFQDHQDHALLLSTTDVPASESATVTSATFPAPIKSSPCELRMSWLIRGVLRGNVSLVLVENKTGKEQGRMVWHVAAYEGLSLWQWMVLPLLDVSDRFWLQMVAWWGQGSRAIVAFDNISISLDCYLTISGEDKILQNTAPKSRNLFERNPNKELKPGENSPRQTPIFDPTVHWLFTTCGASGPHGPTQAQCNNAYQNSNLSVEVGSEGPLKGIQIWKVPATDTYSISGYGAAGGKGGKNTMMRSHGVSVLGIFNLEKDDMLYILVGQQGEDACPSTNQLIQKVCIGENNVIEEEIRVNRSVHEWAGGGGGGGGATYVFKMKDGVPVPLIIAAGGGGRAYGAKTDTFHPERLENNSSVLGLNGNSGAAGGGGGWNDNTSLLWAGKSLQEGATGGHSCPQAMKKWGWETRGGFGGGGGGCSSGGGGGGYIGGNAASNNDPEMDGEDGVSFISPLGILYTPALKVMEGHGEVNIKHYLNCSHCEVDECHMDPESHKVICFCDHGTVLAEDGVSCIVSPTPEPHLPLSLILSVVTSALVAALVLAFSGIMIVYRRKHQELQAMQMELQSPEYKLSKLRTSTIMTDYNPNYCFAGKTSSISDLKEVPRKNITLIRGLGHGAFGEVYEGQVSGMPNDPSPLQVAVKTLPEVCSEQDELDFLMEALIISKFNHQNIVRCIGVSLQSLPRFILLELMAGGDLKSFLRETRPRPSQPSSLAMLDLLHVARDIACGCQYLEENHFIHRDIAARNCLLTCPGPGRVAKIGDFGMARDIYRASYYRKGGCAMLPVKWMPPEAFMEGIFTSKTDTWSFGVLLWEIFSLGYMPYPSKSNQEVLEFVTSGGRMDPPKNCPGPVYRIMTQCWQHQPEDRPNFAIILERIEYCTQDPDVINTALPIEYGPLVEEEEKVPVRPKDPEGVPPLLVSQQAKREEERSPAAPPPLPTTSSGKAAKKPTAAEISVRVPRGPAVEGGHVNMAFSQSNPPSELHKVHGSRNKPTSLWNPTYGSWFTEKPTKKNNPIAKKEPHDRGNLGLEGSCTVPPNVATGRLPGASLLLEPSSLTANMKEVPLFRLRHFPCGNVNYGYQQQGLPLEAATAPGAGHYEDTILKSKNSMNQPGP
Particulars: anti-cell proliferation, 72 hours. Here is the method:
Cloning and Ba/F3 or NIH3T3 Stable Cell Line Creation
The EML4-ALK gene (variant 1) was synthesized at GenScript and cloned into pCDH-CMV-MCS-EF1-Puro plasmid (System Biosciences, Inc). Ba/F3-EML4-ALK wild type were generated by transducing Ba/F3 cells with lentivirus containing EML4-ALK wide type. Stable cell lines were selected by puromycin treatment, followed by IL-3 withdrawal. Briefly, 5×10^6 Ba/F3 cells were transduced with lentivirus supernatant in the presence of 8 μg/mL protamine sulfate. The transduced cells were subsequently selected with 1 μg/mL puromycin in the presence of IL3-containing medium RPMI1640, plus 10% FBS. After 10-12 days of selection, the surviving cells were further selected for IL3 independent growth.
as §3, §4

What is called IC50 is the concentration needed to halve the response being measured. Higher therefore signals weaker potency.

A value given as a limit tells only on which side of the number the result lay.

As to `C[C@@H]1COc2ccc(F)cc2CN2c3nc4c(cnn4cc3OC[C@H]2C)C(=O)N1` [Compound 9, (4R,13R)-8-fluoro-4,13-dimethyl-3,4,13,14-tetrahydro-6H-18,1-(metheno)[1,4]oxazino[3,4-i]-pyrazolo[4,3-f][1,4,8,10]benzo-xatriazacyclotridecin-15(12H)-one], the IC50 in assay [1] worked out at 0.0002 µM; in assay [2], 0.111 µM; in assay [3], 0.0117 µM.
The corresponding values for `CC[C@@H]1COc2cn3ncc4c3nc2N1Cc1cc(F)cnc1O[C@@H](C)CNC4=O` [Compound 10, (4R,12S)-4-ethyl-8-fluoro-12-methyl-3,4,13,14-tetrahydro-6H-18,1-(metheno)[1,4]oxazino[3,4-i]pyrazolo[4,3-f]pyrido[3,2-l] [1,4,8,10]oxatriazacyclotridecin-15(12H)-one] are 0.0002 µM, 0.0631 µM and 0.0712 µM.
The corresponding values for `C[C@H]1CNC(=O)c2cnn3cc4c(nc23)N(Cc2cc(F)ccc2O1)[C@H](COCc1ccccc1)CO4` [Compound 11, (4R,12S)-4-[(benzyloxy)methyl)-8-fluoro-12-methyl-3,4,13,14-tetrahydro-6H-18,1-(metheno)-[1,4]oxazino[3,4-i]pyrazolo[4,3-f][1,4,8,10]benzoxatriazacyclo-tridecin-15(12H)-one] are 0.0911 µM, 4 µM and 3.17 µM.
Taken in the same sequence, the figures for `C[C@H]1CNC(=O)c2cnn3cc4c(nc23)N(Cc2cc(F)ccc2O1)[C@H](CO)CO4` [Compound 12, (4R,12S)-8-fluoro-4-(hydroxymethyl)-12-methyl-3,4,13,14-tetrahydro-6H-18,1-(metheno)[1,4]oxazino[3,4-i]pyrazolo[4,3-f][1,4,8,10]benzoxatriazacyclotridecin-15(12H)-one] were 0.0008 µM, 2 µM and 1.46 µM.
On to `CC[C@@H]1COc2cn3ncc4c3nc2N1Cc1cc(F)ccc1OC[C@@H](C)NC4=O` [Compound 13, (4R,13R)-4-ethyl-8-fluoro-13-methyl-3,4,13,14-tetrahydro-6H-18,1-(metheno)[1,4]oxazino[3,4-i]pyrazolo[4,3-f][1,4,8,10]benzo-xatriazacyclotridecin-15(12H)-one], for which the IC50 in assay [1] worked out at 0.0002 µM; in assay [2] it was 0.145 µM; in assay [3] it was 0.028 µM.
On to `C[C@@H]1COc2ncc(F)cc2CN2c3nc4c(cnn4cc3OC[C@H]2C)C(=O)N1` [Compound 14, (4R,13R)-8-fluoro-4,13-dimethyl-3,4,13,14-tetrahydro-6H-18,1-(metheno)[1,4]oxazino[3,4-i]pyrazolo[4,3-f]pyrido[3,2-l][1,4,8,10]oxatriazacyclotridecin-15(12H)-one], for which the IC50 was under 0.0002 µM in assay [1], 0.0336 µM in assay [2] and 0.0139 µM in assay [3].
Taken in the same sequence, the figures for `CC[C@@H]1COc2cn3ncc4c3nc2N1Cc1cc(F)cnc1OC[C@@H](C)NC4=O` [Compound 15, (4R,13R)-4-ethyl-8-fluoro-13-methyl-3,4,13,14-tetrahydro-6H-18,1-(metheno)[1,4]oxazino[3,4-i]pyrazolo[4,3-f]pyrido[3,2-l] [1,4,8,10]oxatriazacyclotridecin-15(12H)-one] were under 0.0002 µM, 0.0252 µM and 0.014 µM.
The corresponding values for `C[C@@H]1COc2c(F)cc(F)cc2CN2c3nc4c(cnn4cc3OC[C@H]2C)C(=O)N1` [Compound 16, (4R,13R)-8,10-difluoro-4,13-dimethyl-3,4,13,14-tetrahydro-6H-18,1-(metheno)[1,4]oxazino-[3,4-i]pyrazolo[4,3-f][1,4,8,10]-benzoxatriazacyclotridecin-15(12H)-one] are under 0.0002 µM, 0.827 µM and 0.0902 µM.
Taken in the same sequence, the figures for `C[C@H]1CNC(=O)c2cnn3cc4c(nc23)N(CCCO4)Cc2cc(F)ccc2O1` [Compound 17, (13S)-9-fluoro-13-methyl-4,5,14,15-tetrahydro-3H,7H-19,1-(metheno)[1,4]oxazepino-[3,4-i]pyrazolo[4,3-f][1,4,8,10]-benzoxatriazacyclotridecin-16(13H)-one] were under 0.0002 µM, 5 µM and 2.64 µM.
Turning to `C[C@H]1CNC(=O)c2cnn3cc4c(nc23)N(Cc2cc(F)ccc2O1)[C@@H](C)CCO4` [Compound 18, (5S,13S)-9-fluoro-5,13-dimethyl-4,5,14,15-tetrahydro-3H,7H-19,1-(metheno)[1,4]oxazepino[3,4-i]-pyrazolo[4,3-f][1,4,8,10]benzo-xatriaxacyclotridecin-16(13H)-one], the concentration for half-maximal inhibition (IC50) in assay [1] is under 0.0002 µM; in assay [2], over 10 µM; in assay [3], over 10 µM.
Consider `C[C@@H]1CCOc2cn3ncc4c3nc2N1Cc1cc(F)ccc1O[C@@H](C)CNC4=O` [Compound 19, (5R,13S)-9-fluoro-5,13-dimethyl-4,5,14,15-tetrahydro-3H,7H-19,1-(metheno)[1,4]oxazepino[3,4-i]-pyrazolo[4,3-f][1,4,8,10]benzo-xatriazacyclotridecin-16(13H)-one], for which the values for the IC50 in assay [1], in assay [2] and in assay [3] were under 0.0002 µM, 9.95 µM and 6.22 µM, respectively.
The corresponding values for `C[C@@H]1COc2cn3ncc4c3nc2N(Cc2cc(F)ccc2O[C@@H](C)CNC4=O)C1` [Compound 20, (4S,13S)-9-fluoro-4,13-dimethyl-4,5,14,15-tetrahydro-3H,7H-19,1-(metheno)[1,4]oxazepino[3,4-i]-pyrazolo[4,3-f][1,4,8,10]benzo-xatriazacyclotridecin-16(13H)-one] are 0.0051 µM, 2.43 µM and 4.91 µM.
The corresponding values for `C[C@@H]1CCOc2cn3ncc4c3nc2N1Cc1cc(F)cnc1O[C@@H](C)CNC4=O` [Compound 21, (5R,13S)-9-fluoro-5,13-dimethyl-4,5,14,15-tetrahydro-3H,7H-19,1-(metheno)[1,4]oxazepino[3,4-i]pyrazolo[4,3-f]pyrido[3,2-l][1,4,8,10]oxatriazacyclotridecin-16(13H)-one] are 0.0006 µM, 1.82 µM and 3 µM.
The corresponding values for `C[C@@H]1COc2ncc(F)cc2CN2c3nc4c(cnn4cc3OCC[C@H]2C)C(=O)N1` [Compound 22, (5R,14R)-9-fluoro-5,14-dimethyl-4,5,14,15-tetrahydro-3H,7H-19,1-(metheno)[1,4]oxazepino[3,4-i]-pyrazolo[4,3-f]pyrido[3,2-l] [1,4,8,10]oxatriazacyclotridecin-16(13H)-one] are under 0.0002 µM, 0.784 µM and 0.731 µM.
On to `C[C@@H]1CCOc2cn3ncc4c3nc2N1Cc1c(ccc(F)c1Cl)O[C@@H](C)CNC4=O` [Compound 23, (5R,13S)-8-chloro-9-fluoro-5,13-dimethyl-4,5,14,15-tetrahydro-3H,7H-19,1-(metheno)[1,4]-oxazepino[3,4-i]pyrazolo[4,3-f] [1,4,8,10]benzoxatriazacyclo-tridecin-16(13H)-one], for which the concentration for half-maximal inhibition (IC50) in assay [1] was under 0.0002 µM; in assay [2] it was 9.51 µM; in assay [3] it was 1.93 µM.
